Measurements as given in ChEMBL document CHEMBL1153873, “Synthesis, antiarrhythmic and anticoagulant activities of novel thiazolo derivatives from methyl 2-(thiazol-2-ylcarbamoyl)acetate” (Eur J Med Chem, 2009).
Activity calls are given as the source filed them. The calls are words filed in the database; no cut-off is given here.

Assays:
Oryctolagus cuniculus [1] = assay: Anticoagulant activity in New Zealand rabbit assessed as increase in activated partial thromboplastin time at 1 mg/kg, iv after 120 mins; format: functional, organism-based; parameters: dose 1 mg/kg
Oryctolagus cuniculus [2] = organism: Oryctolagus cuniculus; assay: Stimulation of heparin cofactor-2-induced inhibition of alpha-thrombin in rabbit plasma assessed as [125I]-thrombin-heparin cofactor-2 complex formation by SDS-PAGE and autoradiography; format: cell-free
Homo sapiens [3] = organism: Homo sapiens; assay: Stimulation of heparin cofactor-2-induced inhibition of human alpha-thrombin
Oryctolagus cuniculus [4] = organism: Oryctolagus cuniculus; assay: Stimulation of antithrombin-3-induced inhibition of alpha-thrombin in rabbit plasma assessed as [125I]-thrombin-antithrombin-3 complex formation by SDS-PAGE and autoradiography; format: cell-free
Homo sapiens [5] = organism: Homo sapiens; assay: Stimulation of antithrombin-3-induced inhibition of human alpha-thrombin at 0.2 to 2000 ug/mL
Plasma [6] = assay: Anticoagulant activity in rabbit plasma assessed as increase in activated partial thromboplastin time; format: functional, cell-free; details: Oryctolagus cuniculus
Oryctolagus cuniculus [7] = assay: Anticoagulant activity in New Zealand rabbit assessed as increase in activated partial thromboplastin time at 1 mg/kg, po after 8 hrs; format: functional, organism-based; parameters: dose 1 mg/kg
Oryctolagus cuniculus [8] = assay: Effect on blood pressure in New Zealand rabbit assessed arterial blood pressure at 1 mg/kg, iv after 2 hrs; format: functional
Rattus norvegicus = assay: Antiarrhythmic activity in Ivanovas rat assessed as increase LD100 at 5 mg/kg, iv administered 5 mins before aconitine infusion; format: functional, Heart
Plasma [9] = assay: Anticoagulant activity in human plasma assessed as increase in activated partial thromboplastin time; format: functional, cell-free
Oryctolagus cuniculus [10] = assay: Anticoagulant activity in New Zealand rabbit assessed as increase in activated partial thromboplastin time at 1 mg/kg, iv relative to untreated control; format: functional
Oryctolagus cuniculus [11] = assay: Antithrombotic effect in New Zealand rabbit assessed as time duration to occlusion at 3 mg/kg, po relative to control; format: functional
Oryctolagus cuniculus [12] = assay: Antithrombotic effect in New Zealand rabbit assessed as incidence of complete arterial occlusion at 3 mg/kg, po relative to control; format: functional
Oryctolagus cuniculus [13] = assay: Anticoagulant activity in New Zealand rabbit assessed as increase in activated partial thromboplastin time at 1 mg/kg, po after 4 hrs relative to untreated control; format: functional
[14] = Toxicity in rat; format: organism-based; details: in vivo
Oryctolagus cuniculus [15] = assay: Increase in bleeding time in New Zealand rabbit at 1 mg/kg, po relative to control; format: organism-based; parameters: dose 1 mg/kg, route oral; details: in vivo

Row | Compound | Activity (Oryctolagus cuniculus [1]) | Activity (Oryctolagus cuniculus [2]) | inhibition (Homo sapiens [3]) | Activity (Oryctolagus cuniculus [4]) | Activity (Homo sapiens [5]) | Activity (Plasma [6]) | Activity (Oryctolagus cuniculus [7]) | Activity (Oryctolagus cuniculus [8]) [mmHg] | Activity (Rattus norvegicus) [%] | Activity (Plasma [9]) | fold change (FC) (Oryctolagus cuniculus [10]) | fold change (FC) (Oryctolagus cuniculus [11]) | Activity (Oryctolagus cuniculus [12]) [%] | fold change (FC) (Oryctolagus cuniculus [13]) | LD50 [14] [mg/kg] | fold change (FC) (Oryctolagus cuniculus [15])
1 | O=C(CC(=O)Nn1c(=O)c2cc3c(=O)n(NC(=O)CC(=O)Nc4nccs4)c(=O)c3cc2c1=O)Nc1nccs1 | Active | Active | Active | inactive | inactive | Dose-dependent effect | Active | 68.12 | 86 | Dose-dependent effect | 4 | 10 | 42.85 | 2 | 336 | 3.28
2 | O=C(CC(=O)NN1C(=O)c2c(Cl)c(Cl)c(Cl)c(Cl)c2C1=O)Nc1nccs1 |  | Active |  | inactive | inactive |  |  |  | 87.1 |  |  |  |  |  | 443 | 
3 | O=C(CC(=O)Nn1c(-c2ccccc2)csc1=S)Nc1nccs1 |  | Active |  | inactive | inactive |  |  |  | 90.6 |  |  |  |  |  | 292 | 
4 | CC(=O)c1nn(-c2ccc(S(N)(=O)=O)cc2)/c(=N/NC(=O)CC(=O)Nc2nccs2)s1 |  | Active |  | inactive | inactive |  |  |  | 85 |  |  |  |  |  | 546 | 
5 | COC(=O)/C(C(=O)Nc1nccs1)=C(/S)Nc1ccccc1 |  | Active |  | inactive | inactive |  |  |  | 80.2 |  |  |  |  |  | 543 | 
6 | COC(=O)/C(C(=O)Nc1nccs1)=C1/SCC(=O)N1c1ccccc1 |  | Active |  | inactive | inactive |  |  |  | 83 |  |  |  |  |  | 444 | 
7 | O=C(CC(=O)Nc1nccs1)NNC(=S)[S-].[K+] [HYDRAZINECARBODITHIONIC ACID POTASSIUM SALT] |  | Active |  | inactive | inactive |  |  |  | 90.15 |  |  |  |  |  | 723 | 
8 | CCOC(=O)C1=NN(c2ccc(Cl)cc2)/C(=C(/C(=O)Nc2nccs2)C(=O)OC)S1 |  | Active |  | inactive | inactive |  |  |  | 84 |  |  |  |  |  | 435 | 
9 | COC(=O)/C(C(=O)Nc1nccs1)=C1/SC(C(C)=O)=NN1c1ccc(S(N)(=O)=O)cc1 |  | Active |  | inactive | inactive |  |  |  | 90.9 |  |  |  |  |  | 456 | 
10 | COC(=O)/C(C(=O)Nc1nccs1)=C1/SC(C(C)=O)=NN1c1ccc(S(=O)(=O)N2C(=O)c3c(Cl)c(Cl)c(Cl)c(Cl)c3C2=O)cc1 |  | Active |  | inactive | inactive |  |  |  | 88 |  |  |  |  |  | 564 | 
11 | NNC(=O)CC(=O)Nc1nccs1 |  | Active |  | inactive | inactive |  |  |  | 87.5 |  |  |  |  |  | 736 | 
12 | O=C(CC(=O)NN1C(=O)c2ccc3c4c(ccc(c24)C1=O)C(=O)N(NC(=O)CC(=O)Nc1nccs1)C3=O)Nc1nccs1 | Active | Active | Active | inactive | inactive | Dose-dependent effect | Active | 67.4 | 85 | Dose-dependent effect | 7 | 12 | 24.57 | 3 | 445 | 4.33
13 | COC(=O)/C(C(=O)Nc1nccs1)=C1/SC=C(c2ccccc2)N1c1ccccc1 |  | Active |  | inactive | inactive |  |  |  | 88 |  |  |  |  |  | 724 | 
14 | COC(=O)/C(C(=O)Nc1nccs1)=C1/SC(C(C)=O)=C(C)N1c1ccccc1 |  | Active |  | inactive | inactive |  |  |  | 88.8 |  |  |  |  |  | 674 | 
15 | COC(=O)/C(C(=O)Nc1nccs1)=C1/SC=C(C)N1c1ccccc1 |  | Active |  | inactive | inactive |  |  |  | 90.3 |  |  |  |  |  | 434 | 
16 | CCOC(=O)c1nn(-c2ccc(Br)cc2)/c(=N/NC(=O)CC(=O)Nc2nccs2)s1 |  | Active |  | inactive | inactive |  |  |  | 80.1 |  |  |  |  |  | 342 | 
